# Assay results taken from US10836767B2, “Serum stable pro-coelenterazine analogues” (PROMEGA CORPORATION, priority 2017, dated 2020).
# Tested on: DLD-1 cells
# Assay: Complementary NanoLuc fragment-fused Annexin V real-time apoptosis assay
# Assay type: cell-based
# Conditions: 10,000 DLD-1 cells/well; rhTRAIL; t=3.5, 7, 24 and 30 hr
# Description: Small and large fragments of luciferase have been engineered as fusion proteins linked to annexin V for detecting of apoptosis in real-time using a plate-reading luminometer. The individual annexin V-luciferase fragment fusion pairs have low intrinsic affinity for each other, and thus produce no or low luminescence in culture medium or in the presence of non-apoptotic cells; but, when the annexin V-luciferase fragment fusion proteins bind in close proximity to phosphatidylserine exposed on the surface of apoptotic cells, the luciferase fragments reconstitute an active enzyme and generate a luminescent signal.
# General protocol for complementary NanoLuc® fragment-fused-Annexin V binding: DLD-1 cells (10,000/well; 100 μL) were plated in medium+10% FBS and 2× CellTox Green in a solid white 96-well plate. After the cells were allowed to attach, 50 μL of recombinant human TRAIL at final concentration 500 ng/ml in medium+10% FBS fortified with 1 mM CaCl2 was added. […] The plate was incubated at 37° C./5% CO2 in a tissue culture incubator, and luminescence and fluorescence (Ex 485/Em 520) was measured kinetically at the indicated time points. […] The kinetically preceded increases in fluorescence of Cytotox Green indicate cell death. […]
smiles,measurement,value
"COCCOCCOCCOCC(C)(C)C(=O)OCOc1c(Cc2ccco2)nc2c(Cc3ccccc3)nc(-c3ccccc3)cn12 [WZ-0336, ((8-benzyl-2-(furan-2-ylmethyl)-6-phenylimidazo[1,2-a]pyrazin-3-yl)oxy)methyl 13,13-dimethyl-2,5,8,11-tetraoxatetradecan-14-oate]",luminescence response to TRAIL with the compound as pro-substrate,dose-dependent increases in luminescence
